From patent publication US20150219673A1, “THE USE OF GENE EXPRESSION PROFILING AS A BIOMARKER FOR ASSESSING THE EFFICACY OF HDAC INHIBITOR TREATMENT IN NEURODEGENERATIVE CONDITIONS” (Massachusetts Institute of Technology, priority 2012, published 2015)

Legend:
[1] = tested on: peripheral blood mononuclear cells of 5XFAD mice; test: RNA sequencing of peripheral blood mononuclear cells of 5XFAD mice after CI-994 treatment; assay type: in vivo, mouse; details: PBMC, CI-994 1 mg/kg i.p. every other day 1 month, FIG. 2
Procedure: After completion of treatment, blood was drawn and peripheral blood mononuclear cells were rapidly isolated. The cells were washed with PBS and total RNA was extracted using the RNeasy kit (Qiagen). RNA integrity was analyzed using the Bioanalyzer 2100 (Agilent) and the libraries were prepared using the Ovation Ultralow Library System kit (NuGen). Libraries were then pooled in equal amounts and high-throughput sequencing was performed on an Illumina HiSeq 2000 platform. Two individual biological replicates per condition were sequenced.

cognitive function = details: cited from earlier work; for cognitive function in vivo: see US 2011/0224303
[2] = tested on: hippocampus of 5XFAD mice; test: RNA sequencing of hippocampus of 5XFAD mice after chronic CI-994 treatment; assay type: in vivo, mouse; details: 5XFAD mice hippocampus
Text: To test if high-throughput genome-wide RNA sequencing can be readily used a biomarker for HDAC inhibitor-mediated treatment of cognitive decline associate with AD, a mouse model of familial AD, the SXFAD mice were used. These mice harbor point mutations in the AD-related pathogenic presenilin and amyloid precursor protein pathways, and recapitulate the majority of human AD pathologies, including amyloid-β deposition, neurodegeneration, and cognitive impairments. […] After completion of treatment, mice were sacrificed, their brain regions dissected, and total RNA extracted of the hippocampus, a brain region important for memory formation and storage. The RNA was quality controlled using Agilent's bioanalyzer 5' and 3'-end labeled and sequenced on an Illumina HiSeq sequencer with 200 million reads per sample. Sequence reads were aligned to the mouse genome, and quality-filtered. Differential analysis was then conducted using Cuffdiff with IIlumina iGenome mm9 UCSC gene annotation.

[3] = CI-994 1 mg/kg i.p. daily 1 month

## CC(=O)Nc1ccc(C(=O)Nc2ccccc2N)cc1 [CI-994, 4-(acetylamino)-N-(2-aminophenyl)benzamide]
[1]
  number of differentially expressed genes (wild type vs 5XFAD) rescued to control levels: 69 genes
Cognitive function; earlier finding stated for CI-994
  AD-related cognitive impairments: reduce AD-related cognitive impairments
Cognitive function
  cognitive function in vivo: improve cognitive function in vivo
[2]; [3]
  1700026L06Rik expression level: 0.5624
  4833427G06Rik expression level: 1.156
  Abhd2 expression level: 16.6349
  Acaa2 expression level: 15.6611
  Acacb expression level: 0.6669
  Acss3 expression level: 0.8644
  Adcy1 expression level: 121.693
  Aebp1 expression level: 4.334
  Aldh1a1 expression level: 16.8375
  Aldh2 expression level: 35.3667
  Als2cr4 expression level: 14.5748
  Angptl2 expression level: 1.519
  Antxr1 expression level: 4.106
  Apln expression level: 9.121
  Arc expression level: 77.622
  Arhgap28 expression level: 0.18
  Arsg expression level: 13.3427
  Atf4 expression level: 63.7327
  Atp2b3 expression level: 41.3436
  Atp7a expression level: 1.987
  Atp11c expression level: 3.649
  B230217C12Rik expression level: 41.8821
  BC049635 expression level: 0.514
  Baiap2l1 expression level: 0.6224
  Bmp6 expression level: 5.713
  Bmp7 expression level: 2.931
  Brwd3 expression level: 1.786
  Bst2 expression level: 4.307
  Btbd3 expression level: 34.9585
  C1ql2 expression level: 39.6924
  C1qtnf5 expression level: 15.0312
  C230081A13Rik expression level: 8.241
  C530008M17Rik expression level: 17.1167
  Cabp7 expression level: 205.981
  Car14 expression level: 6.584
  Ccdc141 expression level: 2.317
  Ccnd1 expression level: 15.4148
  Cdh3 expression level: 0.3686
  Cdr2 expression level: 5.994
  Cndp1 expression level: 0.2514
  Cnst expression level: 10.5531
  Col4a3 expression level: 0.1459
  Col4a4 expression level: 0.1702
  Col17a1 expression level: 0.02351
  Coro2b expression level: 59.6533
  Cpn1 expression level: 0.2381
  Cpne7 expression level: 72.8282
  Cpt1b expression level: 0
  Crtac1 expression level: 33.2962
  Crtap expression level: 2.382
  Ctnnal1 expression level: 4.538
  Cul4b expression level: 14.4206
  Cxcl14 expression level: 62.1186
  Dab2 expression level: 2.765
  Dclk3 expression level: 6.883
  Dcn expression level: 18.2706
  Dgkh expression level: 8.277
  Dio2 expression level: 13.4167
  Dmrt3 expression level: 0.6692
  Dnahc11 expression level: 0.2181
  Doc2b expression level: 33.8561
  Dpep1 expression level: 0.1399
  Dsg2 expression level: 0.9993
  Dsp expression level: 8.258
  Ephx1 expression level: 17.8668
  Eps8l2 expression level: 1.379
  F11r expression level: 3.438
  Fads2 expression level: 8.701
  Fam38a expression level: 0.6613
  Fam163b expression level: 67.8893
  Fras1 expression level: 0.749
  Fst expression level: 1.755
  Fxyd1 expression level: 37.5709
  Fzd4 expression level: 3.613
  Gabra2 expression level: 45.2624
  Galm expression level: 1.687
  Gas6 expression level: 39.2248
  Glb1l2 expression level: 0.5483
  Glul expression level: 251.125
  Gm221 expression level: 0.499
  Gm853 expression level: 0
  Gm11744 expression level: 2.594
  Gng7 expression level: 64.066
  Gprc5c expression level: 1.254
  Grm2 expression level: 13.2878
  Gyltl1b expression level: 0.192
  Hapln1 expression level: 10.6547
  Hbb-b2 expression level: 3.714
  Hemk1 expression level: 4.074
  Homer2 expression level: 14.9404
  Hsd11b1 expression level: 28.1849
  Hspg2 expression level: 0.7372
  Ifi27l1 expression level: 36.0763
  Igfbp5 expression level: 38.2003
  Igfbp7 expression level: 18.1462
  Igfn1 expression level: 0.1271
  Iqgap1 expression level: 3.038
  Isoc1 expression level: 14.1426
  Kcnj2 expression level: 3.205
  Kcnj10 expression level: 64.1636
  Kif9 expression level: 1.8759
  Kit expression level: 18.7665
  Klhdc7a expression level: 4.613
  Lama5 expression level: 0.8869
  Lamp2 expression level: 40.9038
  Leprel4 expression level: 7.907
  Lingo1 expression level: 88.754
  Llgl2 expression level: 0.4373
  Lmx1a expression level: 0.5034
  Loxl1 expression level: 1.486
  Loxl2 expression level: 0.1912
  Lrp5 expression level: 2.432
  Lrp10 expression level: 14.6733
  Ltc4s expression level: 7.102
  Lypd1 expression level: 47.9728
  Mccc1 expression level: 5.41
  Mfsd7c expression level: 0.65
  Mmp15 expression level: 6.699
  Mpp7 expression level: 1.162
  Myoc expression level: 11.9051
  Myof expression level: 0.8629
  Ndst4 expression level: 5.129
  Nek11 expression level: 0.5801
  Nid2 expression level: 1.141
  Nos1 expression level: 8.7895
  Npas4 expression level: 3.8842
  Npr1 expression level: 1.7036
  Nqo1 expression level: 3.794
  Nt5dc1 expression level: 1.205
  Oca2 expression level: 0.467
  Odz4 expression level: 7.194
  Ooep expression level: 0.07202
  Pcp4l1 expression level: 50.8954
  Pgcp expression level: 8.02
  Phactr2 expression level: 6.295
  Pla2g4e expression level: 1.85
  Plek2 expression level: 0.4301
  Plekha2 expression level: 12.177
  Pltp expression level: 36.9312
  Plxnb2 expression level: 10.316
  Polr1a expression level: 5.4566
  Pon1 expression level: 0.12
  Ppfibp2 expression level: 2.53
  Ppp1r1a expression level: 67.7123
  Ppp1r1b expression level: 37.5707
  Prelp expression level: 9.53
  Prox1 expression level: 14.3616
  Prps2 expression level: 12.0363
  Ptpn14 expression level: 1.315
  Rab20 expression level: 1.273
  Rai14 expression level: 1.053
  Rbp3 expression level: 0.5204
  Rd3 expression level: 0.6656
  Ripk4 expression level: 0.1565
  Rrh expression level: 0.05235
  Rsph4a expression level: 2.9407
  Scg5 expression level: 219.826
  Scn4b expression level: 8.643
  Scube1 expression level: 4.586
  Scube3 expression level: 0.6281
  Sdk1 expression level: 0.6821
  Serpinb1b expression level: 0.9169
  Sfrp5 expression level: 0.5384
  Slc4a10 expression level: 46.0086
  Slc5a3 expression level: 5.289
  Slc12a2 expression level: 20.5749
  Slc12a4 expression level: 5.898
  Slc12a7 expression level: 1.124
  Slc16a2 expression level: 14.2113
  Slc16a4 expression level: 2.157
  Slc16a9 expression level: 1.385
  Slc16a12 expression level: 1.226
  Slc22a6 expression level: 0.7873
  Slc23a2 expression level: 27.4105
  Slc25a39 expression level: 30.7081
  Slc29a4 expression level: 11.9409
  Slc37a2 expression level: 0.8387
  Slc39a4 expression level: 1.073
  Slco1c1 expression level: 20.1851
  Smpdl3a expression level: 19.7502
  Sod3 expression level: 6.1
  Spag16 expression level: 0.4608
  Spint2 expression level: 15.9511
  Sptlc3 expression level: 0.2346
  Ssfa2 expression level: 10.0587
  Stk39 expression level: 28.2125
  Stra6 expression level: 4.817
  Tbc1d1 expression level: 4.993
  Tbc1d2 expression level: 0.8273
  Tbc1d9 expression level: 19.741
  Tbcel expression level: 17.0147
  Tcn2 expression level: 9.139
  Tead1 expression level: 4.075
  Tgfbi expression level: 1.202
  Tgfbr3 expression level: 3.88
  Timp2 expression level: 84.9023
  Tinagl1 expression level: 2.32
  Tjp3 expression level: 0.9513
  Tlr2 expression level: 1.035
  Tmem27 expression level: 0.3657
  Tmem98 expression level: 10.1715
  Tmem108 expression level: 8.4143
  Tns1 expression level: 3.868
  Tspan33 expression level: 15.0442
  Ttc21a expression level: 1.107
  Vamp8 expression level: 13.404
  Vcam1 expression level: 10.2949
  Vcp expression level: 1.545
  Wdfy1 expression level: 7.05
  Wdr16 expression level: 1.6294
  Wfs1 expression level: 43.1125
  Zfp185 expression level: 1.3415
  Zfp605 expression level: 4.398
  rescue of the downregulated genes: 100%
[2]; CI-994 1 mg/kg i.p. daily 1 month, FIG. 1
  rescue of the differentially expressed genes to levels comparable to control mice: rescued to near completion
[2]; FIG. 1 heatmap, significance level p<0.05
  number of genes rescued by CI-994 treatment: 239 genes

## Nc1ccc(C(=O)Nc2ccccc2N)cc1 [dinaline]
Cognitive function
  cognitive function in vivo: improve cognitive function in vivo
